≈ marks a conversion by molar mass, not a printed value. Calls of active or inactive are those of the source. The rule behind the calls is not given here.
Columns and labels:
[1] = Inhibition of mouse KHK-A
[2] = Inhibition of mouse KHK-C
Mus musculus = experiment: Reduction in fructose level in 5 hrs fasted C57B6 mouse assessed as maximum effect at 100 mg/kg administered via oral gavage measured upto 180 mins by oral fructose challenge assay; assay type: functional, organism-based
Ketohexokinase [3] = biological target: T1, Ketohexokinase (Homo sapiens, UniProt P50053); experiment: Inhibition of KHK in human HepG2 cells incubated for 3 hrs by Rapidfire MS analysis; assay type: cell-based
T1 sequence (P50053 whole entry): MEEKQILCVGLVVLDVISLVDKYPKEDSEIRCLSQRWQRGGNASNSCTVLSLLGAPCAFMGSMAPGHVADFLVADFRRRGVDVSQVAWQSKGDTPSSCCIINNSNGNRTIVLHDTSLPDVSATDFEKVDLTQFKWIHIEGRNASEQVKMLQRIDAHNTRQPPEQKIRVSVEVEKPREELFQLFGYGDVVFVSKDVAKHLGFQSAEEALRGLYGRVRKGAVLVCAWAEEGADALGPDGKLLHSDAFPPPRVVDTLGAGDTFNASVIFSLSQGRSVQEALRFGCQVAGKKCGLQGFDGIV

[4] = Metabolic stability in mouse liver microsomes assessed as compound degradation measured after 30 mins; assay type: ADME, Microsome; conditions: read-out: Drug degradation
[5] = Metabolic stability in rat liver microsomes assessed as compound degradation measured after 30 mins; assay type: ADME, Microsome; conditions: read-out: Drug degradation
[6] = Metabolic stability in dog liver microsomes assessed as compound degradation measured after 30 mins; assay type: ADME, Canis lupus familiaris, Microsome; conditions: read-out: Drug degradation
[7] = Metabolic stability in human liver microsomes assessed as compound degradation measured after 30 mins; assay type: ADME, Microsome; conditions: read-out: Drug degradation
[8] = Thermodynamic solubility of the compound […] at pH 7.4; assay type: physicochemical; conditions: read-out: Therm_solubility
Hepatocyte = experiment: Cytotoxicity against rat Primary hepatocyte; assay type: toxicity, cell-based; conditions: hepatocytes
[9] = Permeability in MDCK cells assessed as drug transport measured over 1 hr in presence of P-gp; assay type: ADME, cell-based, Canis lupus familiaris; conditions: dog
[10] = Clearance in rat hepatocytes measured per 10^6 cells; assay type: ADME, cell-based, Hepatocyte; conditions: read-out: CLH
[11] = Clearance in dog hepatocytes measured per 10^6 cells; assay type: ADME, cell-based, Canis lupus familiaris, Hepatocyte; conditions: read-out: CLH
[12] = Clearance in human hepatocytes measured per 10^6 cells; assay type: ADME, cell-based, Hepatocyte; conditions: read-out: CLH
[13] = AUC in rat at 1 mg/kg, iv measured after 12 hrs; assay type: ADME, organism-based; design: time 12 hrs, dose 1 mg/kg, route iv; conditions: in vivo
[14] = Cmax in rat at 1 mg/kg, iv measured after 12 hrs; assay type: ADME, organism-based; design: dose 1 mg/kg, time 12 hrs, route iv; conditions: in vivo
[15] = Clearance in rat at 1 mg/kg, iv measured after 12 hrs; assay type: ADME, organism-based; conditions: in vivo
[16] = Half life in rat at 1 mg/kg, iv measured after 12 hrs; assay type: ADME, organism-based; conditions: in vivo
[17] = Volume of distribution in rat at 1 mg/kg, iv measured after 12 hrs; assay type: ADME, organism-based; conditions: in vivo
[18] = AUC in dog at 1 mg/kg, iv; assay type: ADME, organism-based, Canis lupus familiaris; design: dose 1 mg/kg, route iv; conditions: in vivo
[19] = Cmax in dog at 1 mg/kg, iv; assay type: ADME, organism-based, Canis lupus familiaris; design: dose 1 mg/kg, route iv; conditions: in vivo
[20] = Clearance in dog at 1 mg/kg, iv; assay type: ADME, organism-based, Canis lupus familiaris; conditions: in vivo
[21] = Half life in dog at 1 mg/kg, iv; assay type: ADME, organism-based, Canis lupus familiaris; conditions: in vivo
[22] = Volume of distribution in dog at 1 mg/kg, iv; assay type: ADME, organism-based, Canis lupus familiaris; conditions: in vivo
Ketohexokinase [23] = biological target: T1, Ketohexokinase; experiment: Inhibition of human KHK-A preincubated for 15 mins followed by substrate addition and measured after 20 mins in presence of ATP by Rapidfire MS analysis
[24] = Cmax in rat at 3 mg/kg, po measured after 12 hrs; assay type: ADME, organism-based; design: dose 3 mg/kg, time 12 hrs, route po; conditions: in vivo
[25] = Tmax in rat at 3 mg/kg, po measured after 12 hrs; assay type: ADME, organism-based; conditions: in vivo
[26] = AUC in rat at 3 mg/kg, po measured after 12 hrs; assay type: ADME, organism-based; design: dose 3 mg/kg, time 12 hrs, route po; conditions: in vivo
[27] = Half life in rat at 3 mg/kg, po measured after 12 hrs; assay type: ADME, organism-based; conditions: in vivo
[28] = Oral bioavailability in rat at 3 mg/kg measured after 12 hrs; assay type: ADME, organism-based; conditions: in vivo
[29] = Cmax in dog at 3 mg/kg, po; assay type: ADME, organism-based, Canis lupus familiaris; design: dose 3 mg/kg, route po; conditions: in vivo
[30] = Tmax in dog at 3 mg/kg, po; assay type: ADME, organism-based, Canis lupus familiaris; conditions: in vivo
[31] = AUC in dog at 3 mg/kg, po; assay type: ADME, organism-based, Canis lupus familiaris; design: dose 3 mg/kg, route po; conditions: in vivo
[32] = Half life in dog at 3 mg/kg, po; assay type: ADME, organism-based, Canis lupus familiaris; conditions: in vivo
[33] = Oral bioavailability in dog at 3 mg/kg; assay type: ADME, organism-based, Canis lupus familiaris; conditions: in vivo

SMILES	IC50 [1] [nM]	IC50 [2] [nM]	IC50 (Ketohexokinase [3]) [nM]	metabolised at 0.5 h [4] [%]	metabolised at 0.5 h [5] [%]	metabolised at 0.5 h [6] [%]	metabolised at 0.5 h [7] [%]	solubility thermodynamic [8] [µg/mL]	LC20 (Hepatocyte) [nM]	Drug transport [9] [%]	hepatocyte CLint [10] [µL/min/1e6 cells]	hepatocyte CLint [11] [µL/min/1e6 cells]	hepatocyte CLint [12] [µL/min/1e6 cells]	AUC at 12 h [13] [µM·h]	Cmax [14] [nM]	clearance [15] [mL/min/kg]	half-life [16] [h]	Vd [17] [L/kg]	AUC [18] [µM·h]	Cmax [19] [nM]	other results
C[C@H]1CCN1c1nc(N2C[C@@H]3[C@@H](CC(=O)O)[C@@H]3C2)cc(C(F)(F)F)n1 [PF-06835919]	30	20																			Activity (Mus musculus): Active
OC[C@H]1CCN1c1nc(-c2cnn(C3CNC3)c2)cc(C(F)(F)F)n1	108	32	40	20	0	0	4	690 (≈ 1950 µM)	> 50000	2.2	10	2	< 1.8	0.531	1050	90	0.7	3.4	1.31	2730	clearance [20]: 37 mL/min/kg; half-life [21]: 3.7 h; Vd [22]: 5.2 L/kg
C[C@H]1CCN1c1nc(-c2cnn(CC(=O)N3C[C@H](O)[C@@H](O)C3)c2)cc(C(F)(F)F)c1C#N	5	12	76	20	1	9	24	21 (≈ 46.6 µM)	> 50000	0.5	2.3	< 1.8	3.6	0.381	1280	101	0.5	4.6	2.5	2650	IC50 (Ketohexokinase [23]): 7 nM; clearance [20]: 16 mL/min/kg; half-life [21]: 2.1 h; Vd [22]: 2.7 L/kg
C[C@H]1CCN1c1nc(-c2cnn(CC(=O)NCCO)c2)cc(C(F)(F)F)c1C#N	12	28	84	19	21	7	4	39 (≈ 95.5 µM)	> 50000	15	12	3.2	2.8	2.62	1910	16	2.2	2.9	9.04	2340	clearance [20]: 5 mL/min/kg; half-life [21]: 5.2 h; Vd [22]: 1.4 L/kg; Cmax [24]: 827 nM; Tmax [25]: 1.2 h; AUC at 12 h [26]: 5.09 µM·h; half-life [27]: 3 h; bioavailability [28]: 62%
C[C@H]1CCN1c1nc(-c2cnn(CC(=O)N(CCO)CCO)c2)cc(C(F)(F)F)c1C#N	16	35	102	30	9	16	27	28 (≈ 61.9 µM)	> 50000	2	6.1	2.6	43	1.59	2940	23	2.4	4.8			
OC[C@H]1CCN1c1nc(-c2cnn(C3CCNCC3)c2)cc(C(F)(F)F)n1	56	177		13	0	7	3	750 (≈ 1960 µM)	> 50000	3.2	< 1.8	3.4	1.8	0.69	310	56	4.3	17	1.97	2940	clearance [20]: 23 mL/min/kg; half-life [21]: 5 h; Vd [22]: 8.4 L/kg; Cmax [24]: 424 nM; Tmax [25]: 1.7 h; AUC at 12 h [26]: 1.95 µM·h; half-life [27]: 5 h; bioavailability [28]: 95%; Cmax [29]: 609 nM; Tmax [30]: 2.3 h; AUC [31]: 10.3 µM·h; half-life [32]: 10 h; bioavailability [33]: 100%
